Laboratory results published in patent US12077503B2, “Substituted cyclic amides and their use as herbicides” (FMC CORPORATION, priority 2015, dated 2024).

What was measured:
Type in all cases: in vivo
[1] = test system: giant foxtail (Setaria faberii); assay: Test A preemergence; conditions: Setaria faberi, pre-emergence, 240 h; for pest or weed control at 125 g/ha: 125 g ai/ha, Preemergence, visual injury rating after approximately 10 d, read-out: Foxtail, Giant plant response rating (0 to 100 scale, 0 is no effect, 100 is complete control); for pest or weed control at 500 g/ha: 500 g ai/ha, preemergence, visual injury rating about 10 d after treatment, 0 to 100 scale (0 no effect, 100 complete control), read-out: Foxtail, Giant plant response rating
Procedure, shortened: (§1)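 Visual injury scores from 0, no effect, to 100, complete control, were assigned versus untreated controls roughly 10 d after treatment in the greenhouse. Test chemicals, formulated with surfactant in a non-phytotoxic solvent, were applied to planted seeds as a preemergence soil spray or postemergence to one- to two-leaf plants 2 to 10 cm tall, in loam–sand soil.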

[2] = test system: pigweed (Amaranthus retroflexus); assay: Test A preemergence; conditions: Amaranthus retroflexus, pre-emergence, 240 h; for pest or weed control at 125 g/ha: 125 g ai/ha, Preemergence, visual injury rating after approximately 10 d, read-out: Pigweed plant response rating (0 to 100 scale, 0 is no effect, 100 is complete control); for pest or weed control at 500 g/ha: 500 g ai/ha, preemergence, visual injury rating about 10 d after treatment, 0 to 100 scale (0 no effect, 100 complete control), read-out: Pigweed plant response rating
Kochia (Kochia scoparia) [3] = assay: Test A preemergence; conditions: Bassia scoparia, pre-emergence, 240 h; for pest or weed control at 125 g/ha: 125 g ai/ha, Preemergence, visual injury rating after approximately 10 d, read-out: Kochia plant response rating (0 to 100 scale, 0 is no effect, 100 is complete control); for pest or weed control at 500 g/ha: 500 g ai/ha, preemergence, visual injury rating about 10 d after treatment, 0 to 100 scale (0 no effect, 100 complete control), read-out: Kochia plant response rating
Procedure, shortened: as §1

[4] = test system: barnyardgrass (Echinochloa crus-galli); assay: Test A preemergence; conditions: Echinochloa crus-galli, pre-emergence, 240 h; for pest or weed control at 125 g/ha: 125 g ai/ha, Preemergence, visual injury rating after approximately 10 d, read-out: Barnyardgrass plant response rating (0 to 100 scale, 0 is no effect, 100 is complete control); for pest or weed control at 500 g/ha: 500 g ai/ha, preemergence, visual injury rating about 10 d after treatment, 0 to 100 scale (0 no effect, 100 complete control), read-out: Barnyardgrass plant response rating
Procedure, shortened: as §1

[5] = test system: ryegrass, Italian (Italian ryegrass, Lolium multiflorum); assay: Test A preemergence; conditions: Lolium multiflorum, pre-emergence, 240 h; for pest or weed control at 125 g/ha: 125 g ai/ha, Preemergence, visual injury rating after approximately 10 d, read-out: Ryegrass, Italian plant response rating (0 to 100 scale, 0 is no effect, 100 is complete control); for pest or weed control at 500 g/ha: 500 g ai/ha, preemergence, visual injury rating about 10 d after treatment, 0 to 100 scale (0 no effect, 100 complete control), read-out: Ryegrass, Italian plant response rating
Procedure, shortened: as §1

[6] = test system: ragweed (common ragweed, Ambrosia elatior); assay: Test A preemergence; conditions: Ambrosia artemisiifolia, pre-emergence, 240 h; for pest or weed control at 125 g/ha: 125 g ai/ha, Preemergence, visual injury rating after approximately 10 d, read-out: Ragweed plant response rating (0 to 100 scale, 0 is no effect, 100 is complete control); for pest or weed control at 500 g/ha: 500 g ai/ha, preemergence, visual injury rating about 10 d after treatment, 0 to 100 scale (0 no effect, 100 complete control), read-out: Ragweed plant response rating
Procedure, shortened: as §1

[7] = test system: giant foxtail (Setaria faberii); assay: Test A postemergence; conditions: Setaria faberi, post-emergence, 240 h, read-out: Plant response rating, Foxtail, Giant; for pest or weed control at 125 g/ha: 125 g ai/ha, Postemergence, visual injury after approximately 10 d, 0 to 100 scale where 0 is no effect and 100 is complete control
Procedure, shortened: as §1

[8] = test system: wheat (Triticum aestivum); assay: Test A postemergence; conditions: Triticum aestivum, post-emergence, 240 h, read-out: Plant response rating, Wheat; for plant injury at 125 g/ha: 125 g ai/ha, Postemergence, visual injury after approximately 10 d, 0 to 100 scale where 0 is no effect and 100 is complete control
Procedure, shortened: as §1

Kochia (Kochia scoparia) [9] = assay: Test A postemergence; conditions: Bassia scoparia, post-emergence, 240 h, read-out: Plant response rating, Kochia; for pest or weed control at 125 g/ha: 125 g ai/ha, Postemergence, visual injury after approximately 10 d, 0 to 100 scale where 0 is no effect and 100 is complete control
Procedure, shortened: as §1

[10] = test system: Galium (catchweed bedstraw, Galium aparine); assay: Test A postemergence; conditions: Galium, post-emergence, 240 h, read-out: Plant response rating, Galium; for pest or weed control at 125 g/ha: 125 g ai/ha, Postemergence, visual injury after approximately 10 d, 0 to 100 scale where 0 is no effect and 100 is complete control
Procedure, shortened: as §1

[11] = test system: barnyardgrass (Echinochloa crus-galli); assay: Test A postemergence; conditions: Echinochloa crus-galli, post-emergence, 240 h, read-out: Plant response rating, Barnyardgrass; for pest or weed control at 125 g/ha: 125 g ai/ha, Postemergence, visual injury after approximately 10 d, 0 to 100 scale where 0 is no effect and 100 is complete control
Procedure, shortened: as §1

[12] = test system: ryegrass, Italian (Italian ryegrass, Lolium multiflorum); assay: Test A postemergence; conditions: Lolium multiflorum, post-emergence, 240 h, read-out: Plant response rating, Ryegrass, Italian; for pest or weed control at 125 g/ha: 125 g ai/ha, Postemergence, visual injury after approximately 10 d, 0 to 100 scale where 0 is no effect and 100 is complete control
Procedure, shortened: as §1

corn (Zea mays) = assay: Test A postemergence; conditions: Zea mays, post-emergence, 240 h; for Corn plant response rating (crop injury, 0 = no effect, 100 = complete kill) at 125 g/ha: 125 g ai/ha, Postemergence, visual injury after approximately 10 d, 0 to 100 scale where 0 is no effect and 100 is complete control
Procedure, shortened: as §1

[13] = test system: ragweed (common ragweed, Ambrosia elatior); assay: Test A postemergence; conditions: Ambrosia artemisiifolia, post-emergence, 240 h, read-out: Plant response rating, Ragweed; for pest or weed control at 125 g/ha: 125 g ai/ha, Postemergence, visual injury after approximately 10 d, 0 to 100 scale where 0 is no effect and 100 is complete control
Procedure, shortened: as §1

[14] = test system: blackgrass (Alopecurus myosuroides); assay: Test A postemergence; conditions: Alopecurus myosuroides, post-emergence, 240 h, read-out: Plant response rating, Blackgrass; for pest or weed control at 125 g/ha: 125 g ai/ha, Postemergence, visual injury after approximately 10 d, 0 to 100 scale where 0 is no effect and 100 is complete control
Procedure, shortened: as §1

[15] = 500 g ai/ha, postemergence, visual injury, 0 to 100 scale (0 no effect, 100 complete control), approx. 10 d

Q: How did the pest or weed control at 125 g/ha [1] turn out when CN1CC[C@H](c2ccc(OC(F)(F)F)cc2)[C@@H](C(=O)Nc2cccc(F)c2F)C1=O [Compound 999] was run?
A: The pest or weed control at 125 g/ha was 90%.

Q: And the pest or weed control at 500 g/ha [1]?
A: Its pest or weed control at 500 g/ha is 90%.

Q: What about the pest or weed control at 125 g/ha [2] of the same compound?
A: Its pest or weed control at 125 g/ha is 0%.

Q: What about the pest or weed control at 500 g/ha [2] of the same compound?
A: The pest or weed control at 500 g/ha was 50%.

Q: What about the pest or weed control at 125 g/ha (Kochia (Kochia scoparia) [3]) of the same compound?
A: Its pest or weed control at 125 g/ha is 0%.

Q: What about the pest or weed control at 500 g/ha (Kochia (Kochia scoparia) [3]) of the same compound?
A: Its pest or weed control at 500 g/ha is 20%.

Q: What about the pest or weed control at 125 g/ha [4] of the same compound?
A: The pest or weed control at 125 g/ha was 70%.

Q: And the pest or weed control at 500 g/ha [4]?
A: The pest or weed control at 500 g/ha was 90%.

Q: And the pest or weed control at 125 g/ha [5]?
A: Its pest or weed control at 125 g/ha is 0%.

Q: And the pest or weed control at 500 g/ha [5]?
A: Its pest or weed control at 500 g/ha is 50%.

Q: And the pest or weed control at 125 g/ha [6]?
A: Its pest or weed control at 125 g/ha is 0%.

Q: And the pest or weed control at 500 g/ha [6]?
A: The pest or weed control at 500 g/ha was 30%.

Q: What about the pest or weed control at 125 g/ha [7] of the same compound?
A: Its pest or weed control at 125 g/ha is 40%.

Q: And the plant injury at 125 g/ha [8]?
A: Its plant injury at 125 g/ha is 0%.

Q: And the pest or weed control at 125 g/ha (Kochia (Kochia scoparia) [9])?
A: The pest or weed control at 125 g/ha was 40%.

Q: And the pest or weed control at 125 g/ha [10]?
A: The pest or weed control at 125 g/ha was 0%.

Q: And the pest or weed control at 125 g/ha [11]?
A: Its pest or weed control at 125 g/ha is 100%.

Q: And the pest or weed control at 125 g/ha [12]?
A: The pest or weed control at 125 g/ha was 0%.

Q: And the Corn plant response rating (crop injury, 0 = no effect, 100 = complete kill) at 125 g/ha (corn (Zea mays))?
A: Its Corn plant response rating (crop injury, 0 = no effect, 100 = complete kill) at 125 g/ha is 0%.

Q: And the pest or weed control at 125 g/ha [13]?
A: Its pest or weed control at 125 g/ha is 0%.

Q: And the pest or weed control at 125 g/ha [14]?
A: The pest or weed control at 125 g/ha was 0%.

Q: Which results are given for COc1ccc([C@H]2CN(C)C(=O)[C@@H]2C(=O)Nc2cccc(F)c2F)cc1F [Compound 1021]?
A: pest or weed control at 125 g/ha [1]: 100%; pest or weed control at 500 g/ha [1]: 100%; pest or weed control at 125 g/ha [2]: 70%; pest or weed control at 500 g/ha [2]: 80%; pest or weed control at 125 g/ha (Kochia (Kochia scoparia) [3]): 70%; pest or weed control at 500 g/ha (Kochia (Kochia scoparia) [3]): 90%; pest or weed control at 125 g/ha [4]: 100%; pest or weed control at 500 g/ha [4]: 100%; pest or weed control at 125 g/ha [5]: 0%; pest or weed control at 500 g/ha [5]: 20%; pest or weed control at 125 g/ha [6]: 70%; pest or weed control at 500 g/ha [6]: 70%; pest or weed control at 125 g/ha [7]: 90%; pest or weed control at 500 g/ha [7, 15]: 90%; plant injury at 125 g/ha [8]: 40%; plant injury at 500 g/ha [8, 15]: 60%; pest or weed control at 125 g/ha (Kochia (Kochia scoparia) [9]): 70%; pest or weed control at 500 g/ha (Kochia (Kochia scoparia) [9]; [15]): 70%; pest or weed control at 125 g/ha [10]: 50%; pest or weed control at 500 g/ha [10, 15]: 70%; pest or weed control at 125 g/ha [11]: 100%; pest or weed control at 500 g/ha [11, 15]: 100%; pest or weed control at 125 g/ha [12]: 40%; pest or weed control at 500 g/ha [12, 15]: 70%; Corn plant response rating (crop injury, 0 = no effect, 100 = complete kill) at 125 g/ha (corn (Zea mays)): 60%; Corn plant response rating (crop injury, 0 = no effect, 100 = complete kill) at 500 g/ha (corn (Zea mays); [15]): 80%; pest or weed control at 125 g/ha [13]: 40%; pest or weed control at 500 g/ha [13, 15]: 60%; pest or weed control at 125 g/ha [14]: 20%; pest or weed control at 500 g/ha [14, 15]: 50%
